Entries after “also recorded” stand apart in the source; their conditions may differ.
What was measured:
[1] = tested on: MeWo stable cell lines expressing PK or with PTP knock down; experiment: Imatinib sensitivity of stable MeWo cell lines expressing PK or with PTP knock down; type: cell-based, human; conditions: PK-expressing or PTP knock down lines vs empty vector control cells
melanoma = conditions: 800 mg/day; 26 patients; cited from earlier work
[2] = tested on: endothelial and tumor cells; experiment: CD31-TUNEL dual immunofluorescence of tumor biopsies before and 2 weeks after imatinib; type: in vivo, human; conditions: for apoptosis of endothelial and tumor cells: responder, after 2 weeks of imatinib treatment
Text: FIG. 4. […] The stained samples were further analyzed for apoptotic cells by TUNEL assay (green). Representative images are shown. The corresponding CD31 and TUNEL images are merged (Composite).

[3] = tested on: c-KIT phosphorylation at Y721; experiment: Laser scanning cytometry of phospho-Y721 c-KIT in tumor biopsies before and 2 weeks after imatinib; type: in vivo, human; conditions: responder, tumor biopsy 2 weeks after treatment vs baseline
Text: FIG. 2. […] Tumor biopsies were stained by anti-phospho-Y721 c-KIT antibody followed by secondary antibody conjugated with a fluorescence probe. Laser scanning cytometry (LSC) was used to analyze the […] (MFI) across the tumor biopsies.
FIG. 3. […] (Top panels), Tumor biopsies obtained from the responder at baseline and 2 weeks after treatment (Post-treatment) were stained by anti-phospho-Y721 c-KIT antibody followed by secondary antibody conjugated with a fluorescence probe. Representative images are shown. The tumor sample stained only by the secondary antibody serves as a negative control. (Bottom panels), LSC was used to analyze the intensity of the phospho-Y721 of c-KIT (Cy5) across the entire cross section of tumor biopsies.
For c-KIT phosphorylation, tumor biopsies obtained at baseline (pre-treatment) and during the second week of treatment (post-treatment) were assayed. […] We also examined the levels of phospho-Y703.

Phospho-c-KIT (Y721) = molecular target: T1, Phospho-c-KIT (Y721) (Homo sapiens, UniProt P10721); experiment: c-KIT phosphorylation (Y721) in GIST patients treated with sunitinib; type: in vivo
T1 construct: GIST Patients Treated with Sunitinib; from tissue; host or cells: tumour material of GIST patients treated with sunitinib

Phospho-c-KIT (Y703) = molecular target: T2, Phospho-c-KIT (Y703) (Homo sapiens, UniProt P10721); experiment: c-KIT phosphorylation (Y703) in GIST patients treated with sunitinib; type: in vivo
T2 construct: GIST Patients Treated with Sunitinib; from tissue; host or cells: tumour material of GIST patients treated with sunitinib
T2 sequence (P10721 26-976): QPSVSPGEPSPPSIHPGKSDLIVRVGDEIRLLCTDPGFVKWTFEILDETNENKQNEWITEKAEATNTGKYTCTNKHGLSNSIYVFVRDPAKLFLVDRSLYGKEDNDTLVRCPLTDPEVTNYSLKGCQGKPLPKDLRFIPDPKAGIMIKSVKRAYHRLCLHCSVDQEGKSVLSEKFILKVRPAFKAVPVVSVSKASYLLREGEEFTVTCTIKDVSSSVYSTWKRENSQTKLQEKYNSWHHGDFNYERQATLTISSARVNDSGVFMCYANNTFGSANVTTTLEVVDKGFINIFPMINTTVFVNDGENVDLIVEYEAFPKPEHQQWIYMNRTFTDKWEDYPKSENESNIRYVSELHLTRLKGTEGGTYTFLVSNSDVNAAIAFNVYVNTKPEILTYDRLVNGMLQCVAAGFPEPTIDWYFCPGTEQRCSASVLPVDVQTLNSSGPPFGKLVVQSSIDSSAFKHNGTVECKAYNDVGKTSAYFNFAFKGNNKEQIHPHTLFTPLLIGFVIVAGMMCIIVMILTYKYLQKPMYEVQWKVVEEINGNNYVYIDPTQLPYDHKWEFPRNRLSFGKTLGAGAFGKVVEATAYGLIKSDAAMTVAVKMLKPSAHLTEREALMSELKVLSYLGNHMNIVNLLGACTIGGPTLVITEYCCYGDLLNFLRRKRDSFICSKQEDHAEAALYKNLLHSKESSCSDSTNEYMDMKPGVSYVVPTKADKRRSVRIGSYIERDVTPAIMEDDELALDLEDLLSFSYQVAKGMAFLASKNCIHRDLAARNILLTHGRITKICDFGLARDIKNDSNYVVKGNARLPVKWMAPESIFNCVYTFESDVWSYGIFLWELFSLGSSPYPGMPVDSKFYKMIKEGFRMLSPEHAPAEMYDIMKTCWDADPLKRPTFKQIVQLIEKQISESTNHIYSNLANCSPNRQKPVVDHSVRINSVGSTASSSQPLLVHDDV

T1 sequence (P10721 26-976): as above

Phospho-c-KIT (Y721) change (Phospho-c-KIT (Y721); NON-Responder)	Phospho-c-KIT (Y721) change (Phospho-c-KIT (Y721); Responder)	Phospho-c-KIT (Y703) change (Phospho-c-KIT (Y703); NON-Responder)	Phospho-c-KIT (Y703) change (Phospho-c-KIT (Y703); Responder)	Compound	sensitivity to imatinib-induced growth inhibition and apoptosis [1]	toxicity (melanoma)	increase of apoptotic endothelial and tumor cells ([2]; nonresponding patients' tumors)	apoptosis of endothelial and tumor cells [2]	apoptosis of endothelial and tumor cells ([2]; listed as imatinib)	levels of phospho-Y721 of c-KIT after imatinib treatment [3]	levels of phospho-Y721 of c-KIT after imatinib treatment ([3]; listed as imatinib)
–	–	–	–	Cc1ccc(NC(=O)c2ccc(CN3CCN(C)CC3)cc2)cc1Nc1nccc(-c2cccnc2)n1 [Imatinib]	more sensitive	significant toxicity	not seen	induces	higher levels of apoptosis; also recorded: substantial increase	inhibits	significantly reduced; also recorded: significant inhibition
117% increase	94% decrease	45% increase	57% decrease	CCN(CC)CCNC(=O)c1c(C)[nH]c(/C=C2\C(=O)Nc3ccc(F)cc32)c1C [Sunitinib, N-[2-(diethylamino)ethyl]-5-[(Z)-(5-fluoro-2-oxo-1,2-dihydro-3H-indol-3-ylidene)methyl]-2,4-dimethyl-1H-pyrrole-3-carboxamide]	–	–	–	–	–	–	–
